# According to patent publication US8802723B2, “Metabolic syndrome-improving agent and medicine, supplement, functional food and food additive containing the same” (ARKRAY, Inc., priority 2005, dated 2014):
# Tested on: adiponectin mRNA
# Experiment: adiponectin mRNA expression in differentiated 3T3-L1 adipocytes (Light Cycler)
# Type: cell-based
# Conditions: 3T3-L1, 7 days after differentiation induction, non-treatment control = 100, average ± standard error
# Method: Differentiation Induction Medium (0.25 μM DEX, 0.5 mM MIX, 10 μg/mL Insulin/10% FBS/DMEM)
# 55 mL of FBS (fetal bovine serum (manufactured by GIBCO)) was added to 500 mL of DMEM (manufactured by SIGMA) so as to prepare 10% FBS/DMEM. To this 10% FBS/DMEM, 138.75 μL of 1 mM DEX (dexamethasone)/DMSO (manufactured by Nacalai Tesque, Inc.) and 555 μL of 10 mg/mL insulin/PBS (manufactured by SIGMA) were added. Incidentally, the insulin/PBS was obtained by adding 1N HCl to PBS in advance so as to make the solution acidic enough to allow insulin dissolution and then dissolving insulin. […]
# Next, culture preadipocytes 3T-L1 were thawed, inoculated in a 100 mm dish and cultured until 3T3-L 1 cells reached about 80% confluence. […] 7 days after the initiation of the differentiation induction, mRNA was extracted using Sepasol(R)—RNA I super (manufactured by Nacalai Tesque, Inc.), and the mRNA expression amounts of 36B4, aP2 and adiponectin, which were indicators of an early period of adipocyte differentiation, were measured using Light Cycler™. Also, the medium 7 days after the differentiation induction was taken in an amount of 1 mL from each well, and the amount of adiponectin in the medium supernatant was measured using a mouse/rat adiponectin ELISA kit (trade name) (manufactured by Otsuka Pharmaceutical Co., Ltd.). […]
smiles,measurement,setting,value
"CC(C)=CCC/C(C)=C/COc1ccc2ccc(=O)oc2c1 [Aurapten, aurapten]",Adiponectin mRNA expression amount (ratio to 36B4),aurapten 1 μM,144.5 ± 26.7
same,Adiponectin mRNA expression amount (ratio to 36B4),aurapten 5 μM,161.4 ± 40.2
